Molecular target: Human indoleamine 2,3-dioxygenase (IDO) (Homo sapiens (Human), UniProt P14902)
Test: Human Indoleamine 2,3-Dioxygenase (IDO) Enzyme Assay
Assay type: biochemical
Conditions: assay of Example A, 95 nM IDO, 2 mM D-Trp, pH 6.5, room temperature
Excerpt: Human indoleamine 2,3-dioxygenase (IDO) with an N-terminal His tag was expressed in E. coli and purified to homogeneity. IDO catalyzes the oxidative cleavage of the pyrrole ring of the indole nucleus of tryptophan to yield N′-formylkynurenine.

Sequence of Human indoleamine 2,3-dioxygenase (IDO) (P14902 whole entry): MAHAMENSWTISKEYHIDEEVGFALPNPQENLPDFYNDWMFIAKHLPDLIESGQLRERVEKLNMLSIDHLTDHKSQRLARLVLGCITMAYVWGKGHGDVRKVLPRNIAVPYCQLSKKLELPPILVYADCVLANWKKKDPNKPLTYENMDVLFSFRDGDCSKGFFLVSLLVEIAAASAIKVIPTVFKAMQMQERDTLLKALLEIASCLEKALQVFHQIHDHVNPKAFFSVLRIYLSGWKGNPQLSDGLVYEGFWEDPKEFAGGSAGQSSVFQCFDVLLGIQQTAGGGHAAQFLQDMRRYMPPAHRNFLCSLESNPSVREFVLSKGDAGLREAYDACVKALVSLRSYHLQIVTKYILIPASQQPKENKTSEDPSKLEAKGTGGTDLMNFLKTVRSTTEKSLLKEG

IC50 (Table 2) [nM]	IC50 (Table 3) [nM]	Compound
< 100	–	CS(=O)(=O)NCCCNc1nonc1C(=NO)Nc1ccc(F)c(Br)c1 [Example 4, N-(3-Bromo-4-fluorophenyl)-N′-hydroxy-4-({3-[(methylsulfonyl)amino]propyl}amino)-1,2,5-oxadiazole-3-carboximidamide]
< 200	–	NS(=O)(=O)NCCNc1nonc1C(=NO)Nc1ccc(F)c(Cl)c1 [Example 5, 4-({2-[(Aminosulfonyl)amino]ethyl}amino)-N-(3-chloro-4-fluorophenyl)-N′-hydroxy-1,2,5-oxadiazole-3-carboximidamide]
< 100	–	CS(=O)(=O)NCCNc1nonc1C(=NO)Nc1ccc(F)c(C(F)(F)F)c1 [Example 10, N-[4-Fluoro-3-(trifluoromethyl)phenyl]-N′-hydroxy-4-({2-[(methylsulfonyl)amino]ethyl}amino)-1,2,5-oxadiazole-3-carboximidamide]
< 100	–	NS(=O)(=O)NCCCNc1nonc1C(=NO)Nc1ccc(F)c(C(F)(F)F)c1 [Example 11, 4-({3-[(Aminosulfonyl)amino]propyl}amino)-N-[4-fluoro-3-(trifluoromethyl)phenyl]-N′-hydroxy-1,2,5-oxadiazole-3-carboximidamide]
< 200	–	NS(=O)(=O)NCCCNc1nonc1C(=NO)Nc1cccc(C(F)(F)F)c1 [Example 15, 4-({3-[(Aminosulfonyl)amino]propyl}amino)-N′-hydroxy-N-[3-(trifluoromethyl)phenyl]-1,2,5-oxadiazole-3-carboximidamide]
< 500	–	Cc1cc(NC(=NO)c2nonc2NCCNS(C)(=O)=O)ccc1F [Example 17, N-(4-Fluoro-3-methylphenyl)-N′-hydroxy-4-({2-[(methylsulfonyl)amino]ethyl}amino)-1,2,5-oxadiazole-3-carboximidamide]
< 750	–	N#Cc1cc(NC(=NO)c2nonc2NCCNS(N)(=O)=O)ccc1F [Example 18, 4-({2-[(Aminosulfonyl)amino]ethyl}amino)-N-(3-cyano-4-fluorophenyl)-N′-hydroxy-1,2,5-oxadiazole-3-carboximidamide]

The remaining lines, values behind:

Compound	IC50 (Table 2) [nM]	IC50 (Table 3) [nM]
NS(=O)(=O)NCCCNc1nonc1C(=NO)Nc1ccc(F)c(Br)c1 [Example 3, 4-({3-[(Aminosulfonyl)amino]propyl}amino)-N-(3-bromo-4-fluorophenyl)-N′-hydroxy-1,2,5-oxadiazole-3-carboximidamide]	< 100	–
CS(=O)(=O)NCCNc1nonc1C(=NO)Nc1ccc(F)c(Cl)c1 [Example 6, N-(3-Chloro-4-fluorophenyl)-N′-hydroxy-4-({2-[(methylsulfonyl)amino]ethyl}amino)-1,2,5-oxadiazole-3-carboximidamide]	< 200	–
NS(=O)(=O)NCCCNc1nonc1C(=NO)Nc1ccc(F)c(Cl)c1 [Example 7, 4-({3-[(Aminosulfonyl)amino]propyl}amino)-N-(3-chloro-4-fluorophenyl)-N′-hydroxy-1,2,5-oxadiazole-3-carboximidamide]	< 200	–
CS(=O)(=O)NCCCNc1nonc1C(=NO)Nc1ccc(F)c(Cl)c1 [Example 8, N-(3-Chloro-4-fluorophenyl)-N′-hydroxy-4-({3-[(methylsulfonyl)amino]propyl}amino)-1,2,5-oxadiazole-3-carboximidamide]	< 200	–
NS(=O)(=O)NCCNc1nonc1C(=NO)Nc1ccc(F)c(C(F)(F)F)c1 [Example 9, 4-({2-[(Aminosulfonyl)amino]ethyl}amino)-N-[4-fluoro-3-(trifluoromethyl)phenyl]-N′-hydroxy-1,2,5-oxadiazole-3-carboximidamide]	< 100	–
CS(=O)(=O)NCCCNc1nonc1C(=NO)Nc1ccc(F)c(C(F)(F)F)c1 [Example 12, N-[4-Fluoro-3-(trifluoromethyl)phenyl]-N′-hydroxy-4-({3-[(methylsulfonyl)amino]propyl}amino)-1,2,5-oxadiazole-3-carboximidamide]	< 100	–
NS(=O)(=O)NCCNc1nonc1C(=NO)Nc1cccc(C(F)(F)F)c1 [Example 13, 4-({2-[(Aminosulfonyl)amino]ethyl}amino)-N′-hydroxy-N-[3-(trifluoromethyl)phenyl]-1,2,5-oxadiazole-3-carboximidamide]	< 500	–
CS(=O)(=O)NCCNc1nonc1C(=NO)Nc1cccc(C(F)(F)F)c1 [Example 14, N′-Hydroxy-4-({2-[(methylsulfonyl)amino]ethyl}amino)-N-[3-(trifluoromethyl)phenyl]-1,2,5-oxadiazole-3-carboximidamide]	< 200	–
CS(=O)(=O)NCCCNc1nonc1C(=NO)Nc1cccc(C(F)(F)F)c1 [Example 16, N′-Hydroxy-4-({3-[(methylsulfonyl)amino]propyl}amino)-N-[3-(trifluoromethyl)phenyl]-1,2,5-oxadiazole-3-carboximidamide]	< 200	–
CS(=O)(=O)NCCNc1nonc1C(=NO)Nc1ccc(F)c(C#N)c1 [Example 19, N-(3-Cyano-4-fluorophenyl)-N′-hydroxy-4-({2-[(methylsulfonyl)amino]ethyl}amino)-1,2,5-oxadiazole-3-carboximidamide]	< 500	–
NS(=O)(=O)NCCNc1nonc1C(=NO)NCc1cc(Br)co1 [Example 20, 4-({2-[(Aminosulfonyl)amino]ethyl}amino)-N-[(4-bromo-2-furyl)methyl]-N′-hydroxy-1,2,5-oxadiazole-3-carboximidamide]	–	< 500
NS(=O)(=O)NCCNc1nonc1C(=NO)NCc1cc(Cl)co1 [Example 21, 4-({2-[(Aminosulfonyl)amino]ethyl}amino)-N-[(4-chloro-2-furyl)methyl]-N′-hydroxy-1,2,5-oxadiazole-3-carboximidamide]	–	< 750
